pIC50: −log10 of the molar value. Activity calls are given as the source filed them. How the calls were made is not given here.
Tested on: Trypanosoma brucei growth inhibition
Assay: T. brucei growth inhibition (AID 1159557);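 further: parasites exposed to compound for 48 h before the resazurin readout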

| Structure (SMILES) | pIC50 | IC50 |
| --- | --- | --- |
| COc1ccc(C(=O)Nc2c(C)nn(COc3cccc(C(F)(F)F)c3)c2C)cc1 | 6.10 | – |
| N#Cc1ccccc1S(=O)(=O)N1CCN(C(=O)CNC(=O)c2ccc3c(c2)OCO3)CC1 | – | > 40000 nM (inactive) |
| Cc1nc2c(-c3nc(-c4ccc(N)cc4)n[nH]3)cccn2c1C | 4.89 | – |
| CC(C)(C)CC(=O)NCCc1csc(-c2ccc(F)cc2)n1 | 6.20 | – |
| COc1ccc(C(C)(C)C)cc1S(=O)(=O)n1ccnc1 | 4.40 | – |
| c1ccc2c(CCOc3nccnc3-c3ccncc3)c[nH]c2c1 | 4.49 | – |
| CC1(C)CCC(=Cc2ccc(Cl)cc2)CC1(O)Cn1ccnc1 (stereo not drawn) | 5.00 | – |
| COc1cc(OC)cc(C(NS(=O)(=O)c2ccc(Cl)c(C(F)(F)F)c2)c2nccn2C)c1 (stereo not drawn) | 5.10 | – |
| CCCCc1cc(Nc2cc(C3CCC3)[nH]n2)nc(N2CCC2C(N)=O)n1 (stereo not drawn) | 6.89 | – |
| Cc1ccccc1OCC(=O)N1CCCN(c2cccnn2)CC1 | – | > 40000 nM (inactive) |
| Cc1nc(-c2nc(NCc3ccc(Cl)cc3)c3cccnc3c2O)n[nH]1 | 6.20 | – |
| COc1ccccc1-c1c(C)[nH]c2nc(N)nc(C)c12 | 4.60 | – |
| O=C(NCCc1nc(-c2ccc(F)c(F)c2)n[nH]1)C1CCCCC1 | 6.30 | – |
| O=C(Nc1nc2ccccc2[nH]1)c1ccc2nc[nH]c2c1 | – | > 40000 nM (inactive) |
| O=C(c1cnn(-c2ccccc2)n1)N1CCCC(n2ccnc2)C1 (stereo not drawn) | – | > 40000 nM (inactive) |
| CCC(CC)C(=O)Nc1ccc(-c2nnc(-c3ccc(OC)cc3)o2)cc1 | 6.30 | – |
| Nc1nc(-c2ccccn2)nc(-n2nc(-c3ccccc3)cc2N)n1 | 6.00 | – |
| O=C(CN1CCN(S(=O)(=O)c2cccc([N+](=O)[O-])c2)CC1)Nc1ccc(Oc2ccccc2)cc1 | 4.70 | – |
| Cc1[nH]nc(C(F)(F)F)c1NC(=O)CCn1cc(Cl)c([N+](=O)[O-])n1 | 6.30 | – |
| COc1ccc(-c2cnc(C)o2)cc1S(=O)(=O)Nc1ccc(C)cc1C | 5.20 | – |
| O=c1[nH]cnc2c([C@@H]3O[C@H](CO)[C@@H](O)[C@H]3O)[nH]nc12 | 8.49 | – |
| Cc1c(CNC(=O)c2ccc(Cn3cc(Cl)c([N+](=O)[O-])n3)cc2)cnn1C | 5.30 | – |

| Structure (SMILES) | pIC50 | IC50 |
| --- | --- | --- |
| COc1ccc(-c2cnc(NC(=O)c3ccc(F)cc3)n2C)cc1 | 5.89 | – |
| Cc1ncsc1CNc1cnc(-c2ccc3c(c2)OCCO3)c(-c2cnn(C)c2)c1 | 6.89 | – |
| N#Cc1ccc(Br)cc1[N+](=O)[O-] | 6.80 | – |
| O=C(c1ccc(O)c(Cl)c1)N1CCN(c2cnccn2)CC1 | – | > 40000 nM (inactive) |
| O=C(Nc1ccc(Br)c(Cl)c1)Nc1ccc2c(c1)OCO2 | 5.10 | – |
| COc1cccc(CN(C)Cc2nc(N)c3c(C)c(C)sc3n2)c1 | 5.30 | – |
| C[C@@H](Oc1cc(-n2cnc3ccc(O[C@H]4CCNC4)cc32)sc1C(N)=O)c1ccccc1Cl | 6.60 | – |
| N#Cc1ccc(C(=O)Nc2cccc(-c3cccc(CN4CCC(O)CC4)c3)c2)cc1 | 6.10 | – |
| Cc1nn(C)c(Cl)c1CN(Cc1cccnc1)Cc1ccsc1 | – | > 40000 nM (inactive) |
| Cc1cccc(NS(=O)(=O)c2cnc3sc(C)cn3c2=O)c1 | – | > 40000 nM (inactive) |
| COc1ccccc1C1CC(c2ccc(NS(C)(=O)=O)cc2)=NN1C(=O)c1cccs1 (stereo not drawn) | 4.80 | – |
| COc1cccc(NS(=O)(=O)c2ccc3[nH]cc(C(=O)NCCC(C)C)c(=O)c3c2)c1 | 6.49 | – |
| O=C(NCCCn1cnc2ccccc21)c1ccc(NC(=O)c2ccco2)cc1 | 6.70 | – |
| COc1ccc2ncc(Cl)c(CCN3CC[C@@H](NCc4cc5c(cn4)OCS5)[C@H](O)C3)c2n1 | 6.49 | – |
| NCc1csc(Nc2cc(Oc3ccccc3)ncn2)n1 | 6.20 | – |
| COc1cccc(CCNC(=O)C(c2cn[nH]c2)N2CCN(c3ccc(Cl)cc3)CC2)c1 (stereo not drawn) | 4.70 | – |
| O=C(Nc1nc(-c2ccc(S(=O)(=O)N3CCOCC3)cc2)cs1)c1ccc([N+](=O)[O-])cc1 | 5.40 | – |
| O=C(CSc1nnc2ccc(-c3ccc(F)cc3)nn12)N1CCCCC1 | 6.40 | – |
| O=c1ccc2ccc(F)c3c2n1C[C@H]3CN1CCN(CC(O)c2cc3c(cn2)OCS3)CC1 (stereo partly drawn) | 6.70 | – |
| CCCc1cc(C(=O)Nc2ncc(-c3cccc(Br)c3)n2C)n[nH]1 | 5.60 | – |
| COCCn1cnc2cc(NC(=O)C3CCCCC3)cc(C(=O)N3CCc4sccc4C3)c21 | 6.10 | – |
| CC(=O)Nc1ccc(Nc2nccc(-c3cnn4ncccc34)n2)cc1C(F)(F)F | 7.49 | – |

| Structure (SMILES) | pIC50 | IC50 |
| --- | --- | --- |
| O=[N+]([O-])c1cccc(Nc2cncc(-c3ccccc3CO)c2)c1 | – | > 40000 nM (inactive) |
| COc1cnc2ccc(=O)n(CCN3CCC(NC(=O)c4ccc(Cl)cc4)CC3)c2c1 | 7.10 | – |
| O=C(Nc1ncc([N+](=O)[O-])s1)C1CC1 | 5.10 | – |
| O=C(Cc1ccc2c(c1)CCC2)Nc1n[nH]c(-c2ccccn2)n1 | 4.70 | – |
| Cc1nc(N2CCC(C(=O)N3CCC(O)(c4cccnc4)CC3)CC2)nc2ccc(C(C)C)cc12 | 4.70 | – |
| O=c1cc(NCCCNCc2c[nH]c3ccc(Br)cc23)[nH]c2ccccc12 | 6.00 | – |
| CCN(CC)c1nc(N(C)C)nc2c1CN(Cc1ccccc1)CC2 | 4.70 | – |
| CN(Cc1nc2ccccc2s1)C(=O)C=Cc1cc2ccccc2o1 | 4.49 | – |
| O=C1CN(C(=O)c2cccc(Nc3ncc(-c4ccc5c(c4)OCO5)cn3)c2)CCN1 | – | > 50000 nM (inactive) |
| COc1ccc(C(C)N(C)c2ncc3c(N)nc(N)nc3n2)cc1F (stereo not drawn) | 4.89 | – |
| Cc1cc2cc(CNc3ccc4c(c3)OCO4)c(=O)n(CCO)c2cc1C | 4.60 | – |
| CC(CNS(=O)(=O)c1ccc(OC(F)F)cc1)c1ccc(NC(=O)c2ccncc2)cc1 (stereo not drawn) | 5.10 | – |
| COc1ccc(-c2cnc(NC(=O)c3cc(-c4ccccn4)n[nH]3)n2C)cc1 | 6.40 | – |
| O=C(NCc1nnc2n1CCCCC2)c1csc(-c2ccccc2)n1 | 6.49 | – |
| NC(=O)c1ccccc1Nc1nc(NC2CCCCC2)nc2[nH]ccc12 | 6.30 | – |
| Nc1cc(-c2ccc3ncnc(N4CCOCC4)c3c2)cnc1N | 7.30 | – |
| COc1ccc(C2CC(c3ccccc3Cl)=NN2C(=O)CNC(=O)C2CCC2)cc1 (stereo not drawn) | 6.49 | – |
| CCc1cc(C(=O)Nc2nccn2-c2ccccc2)cs1 | 5.49 | – |
| O=C(NCC1CCCCN1C(=O)c1cccc2ccccc12)c1ccccc1 (stereo not drawn) | 6.40 | – |
| CNc1c(C(N)=O)c(-c2ccc3scnc3c2)nn1CC(F)(F)F | 4.49 | – |
| CCCN1CCN(Cc2ccc(S(=O)(=O)Nc3cccc(C)c3)cc2)CC1 | 4.60 | – |
| CCOC(=O)c1noc(N)c1-c1ccccc1 | 6.20 | – |

| Structure (SMILES) | pIC50 | IC50 |
| --- | --- | --- |
| CN(CC1CCCO1)S(=O)(=O)c1ccc(C(=O)Nc2nc(-c3ccccn3)cs2)cc1 (stereo not drawn) | 6.30 | – |
| N#Cc1cc(N2CCCC2=O)ccc1Sc1ccccc1CO | 4.40 | – |
| O=[N+]([O-])c1ccc(C2=CC(c3ccccc3)=NCCN2)cc1 | 5.20 | – |
| CN(C)S(=O)(=O)c1ccc(-c2cnc(N)c(-c3nc4ccc(F)cc4[nH]3)c2)cc1 | 6.40 | – |
| COc1cccc(-c2c(C)nn(-c3nc(N)nc(-c4ccccn4)n3)c2N)c1 | – | > 40000 nM (inactive) |
| Cc1cc2cncn2c(C2CCCCN2C(=O)c2cccs2)n1 (stereo not drawn) | – | > 40000 nM (inactive) |
| COc1cccc(C(=O)[C@H]2C[C@@H]2CN(Cc2cccnc2)Cc2cccnc2)c1 | 4.49 | – |
| Cc1cc(C)cc(NS(=O)(=O)c2cc(-c3cc(C)[nH]n3)ccc2C)c1 | 6.00 | – |
| c1ccc2[nH]c(-c3ccc(N4CCCC4)nc3)nc2c1 | 6.10 | – |
| Cc1ccc(C)c(CN2C(=O)NC3(CCc4ccccc43)C2=O)c1 (stereo not drawn) | 6.30 | – |
| CCOc1ccc(CN(C)Cc2nc(N)nc(Nc3ccc(C)cc3)n2)cc1 | 5.60 | – |
| O=c1ccn(-c2ccc([N+](=O)[O-])cc2Cl)c2ccc(F)cc12 | 4.60 | – |
| O=C(Nc1ccc(S(=O)(=O)N2CCCC2)cc1)c1ccc([N+](=O)[O-])s1 | 6.80 | – |
| CN(C)c1ccc(-c2cc3nccnc3c(OC[C@H]3CCCNC3)n2)cn1 | 5.70 | – |
| CC1CN(Cc2ccc(C#N)cc2)CCN1c1ccc(NC(=O)c2ccccc2F)cc1 (stereo not drawn) | – | > 40000 nM (inactive) |
| c1ccc(-c2nc(NC3CCCC3)c3ccccc3n2)nc1 | 5.20 | – |
| CCOc1cc(NCCCN2CCN(C)CC2)c2ncccc2c1 | 4.89 | – |
| O=C(NNC(=O)c1ccccn1)c1ccc(-c2ccccc2)cc1 | 6.49 | – |
| CN(C)c1ncc(-c2cncn2CCOc2ccc(Cl)cc2)cn1 | – | > 40000 nM (inactive) |
| CN(C)c1ccc(N)cc1CN(CC1CCCO1)S(C)(=O)=O (stereo not drawn) | – | > 40000 nM (inactive) |
| N#Cc1cc(-c2ccnc(Nc3cccc(CN4CCOCC4)c3)n2)ccc1NCCN | 6.40 | – |
| Fc1ccc(OC2CC(NCc3cccc4cn[nH]c34)C2)cc1C(F)(F)F (stereo not drawn) | 5.10 | – |

| Structure (SMILES) | pIC50 | IC50 |
| --- | --- | --- |
| Cc1nn(-c2nc(N)nc(-c3ccccn3)n2)c(N)c1-c1ccccc1 | 5.70 | – |
| CCN(CC)S(=O)(=O)c1ccc(Cn2nc(C(=O)Nc3ccncn3)c3ccccc32)cc1 | 4.49 | – |
| Cn1ccnc1-c1nc(NCc2ccccc2Cl)cc(C2CC2)n1 | 5.70 | – |
| CC(CCc1ccccc1)NC(=O)CN(Cc1ccccn1)Cc1ccccn1 (stereo not drawn) | 5.00 | – |
| CCC(=O)Nc1ccc(-c2nc3ccc(Cl)cc3[nH]2)cc1 | 5.20 | – |
| Cn1nccc1NC(=O)Cn1ccc(-c2ccncc2)n1 | 6.20 | – |
| Cc1ccc(S(C)(=O)=O)cc1Nc1nccc(-c2sc(N)nc2-c2ccccc2)n1 | 6.10 | – |
| Cc1ccccc1NS(=O)(=O)c1ccc2[nH]cc(C(=O)NC3CCCC3)c(=O)c2c1 | 6.49 | – |
| CN(C)S(=O)(=O)c1cccc(C(=O)Nc2nc(-c3ccccn3)cs2)c1 | 6.30 | – |
| O=C(Nc1ccc(Br)cn1)c1ccc(Cn2cnc([N+](=O)[O-])n2)cc1 | 5.80 | – |
| COc1ccc(-c2cc(C)no2)cc1S(=O)(=O)Nc1ccc(F)c(Cl)c1 | 4.80 | – |
| CC(C)(C)C(=O)NCCc1csc(-c2ccc(F)cc2)n1 | 6.20 | – |
| CCc1ccccc1[C@@H](C)NC(=O)c1cnc2c(cnn2CC)c1NC1CCN(C(N)=O)CC1 | 6.60 | – |
| CC(=O)Nc1ccc(-c2cnc(N)c(-c3nc4ccc(F)cc4[nH]3)c2)cc1 | 6.20 | – |
| CCOC(=O)c1cn[nH]c1S(=O)(=O)N1CCC1c1ccccc1 (stereo not drawn) | 6.20 | – |
| COc1ccc2ncc(=O)n(CCN3CCOC(CNCc4ccc(C(F)(F)F)cc4F)C3)c2n1 (stereo not drawn) | 6.20 | – |
| NC(=O)c1ccsc1NC(=O)c1ccc([N+](=O)[O-])s1 | 6.70 | – |
| Cc1ccnc(NS(=O)(=O)c2ccc(NC(=O)c3ccc([N+](=O)[O-])s3)cc2)n1 | 6.70 | – |
| O=C(Nc1ccc(C(F)(F)F)cc1)Nc1cccc([N+](=O)[O-])c1 | 5.70 | – |
| Cc1nc2c(-c3cccs3)c(C)nn2c(NCCO)c1C | 6.89 | – |

Source: PubChem BioAssay AID1159557 (GlaxoSmithKline (GSK), 2015)
